pEC50, pIC50, pKi: −log10 of the molar value. ≈ marks a conversion by molar mass, not a printed value.
What was measured:
[1] = test system: THP-1; assay: Antiproliferative activity against human THP-1 cells assessed as cell growth inhibition incubated for 72 hrs by MTT assay; format: functional, cell-based; details: THP-1, 72 h
[2] = test system: KG-1; assay: Antiproliferative activity against human KG-1 cells assessed as cell growth inhibition incubated for 72 hrs by MTT assay; format: functional, cell-based; details: KG-1, 72 h
[3] = test system: HL-60; assay: Antiproliferative activity against human HL-60 cells assessed as cell growth inhibition incubated for 72 hrs by MTT assay; format: functional, cell-based; details: HL-60, 72 h
[4] = test system: Melanoma cell line; assay: Antiproliferative activity against human melanoma cells assessed as reduction in cell viability incubated for 72 hrs by CellTiter-Fluor reagent based fluorescence analysis; format: functional
[5] = test system: NCI-H460; assay: Antiproliferative activity against human NCI-H460 cells assessed as reduction in cell viability incubated for 48 hrs by cell titer glow assay; format: functional, cell-based; details: NCI-H460, 48 h
[6] = Antiproliferative activity against mouse TA3/Ha cells assessed as reduction in cell growth; format: functional, cell-based
[7] = test system: A-375; assay: Antiproliferative activity against human A-375 cells assessed as inhibition of cell growth measured after 72 hrs by CCK8 assay; format: functional, cell-based; details: A-375, 72 h
[8] = Half life in BALB/c mouse plasma at 100 mg/kg, ip; format: ADME, organism-based
[9] = test system: 4T1; assay: Antitumor activity against mouse 4T1 cells xenografted in BALB/c mouse model assessed as peak tumor level at 100 mg/kg, ip measured after 4 hrs; format: functional
[10] = test system: 4T1; assay: Antitumor activity against mouse 4T1 cells xenografted in BALB/c mouse model assessed as peak plasma level at 100 mg/kg, ip; format: functional
[11] = Half life in tumor of BALB/c mouse model xenografted with 4T1 cells at 100 mg/kg, ip measured after 4 hrs; format: ADME, organism-based
[12] = test system: NCI-H1693; assay: Antiproliferative activity against human NCI-H1693 assessed as reduction in cell growth incubated for 72 hrs by Cell-titer glo assay; format: functional, cell-based; details: NCI-H1693, 72 h
[13] = test system: NCI-H157; assay: Antiproliferative activity against human NCI-H157 assessed as reduction in cell growth incubated for 72 hrs by Cell-titer glo assay; format: functional, cell-based; details: NCI-H157, 72 h
[14] = test system: NCI-H1581; assay: Antiproliferative activity against human NCI-H1581 cells assessed as reduction in cell growth incubated for 72 hrs by Cell-titer glo assay; format: functional, cell-based; details: NCI-H1581, 72 h
[15] = Antiproliferative activity against human DFCI024 cells assessed as reduction in cell growth incubated for 72 hrs by Cell-titer glo assay; format: functional, cell-based; details: DFCI024, 72 h
[16] = test system: MDA-MB-231; assay: Antiproliferative activity against human MDA-MB-231 cells assessed as reduction in cell viability incubated for 72 hrs by cell-titer glo assay; format: functional, cell-based; details: MDA-MB-231, 72 h
[17] = Inhibition of NADH-ubiquinone oxidoreductase (unknown origin) binding to ETC complex 1; design: species or system Homo sapiens
[18] = test system: MDA-MB-435; assay: Antiproliferative activity against human MDA-MB-435 cells assessed as reduction in cell viability incubated for 72 hrs by cell-titer glo assay; format: functional, cell-based; details: MDA-MB-435, 72 h
[19] = Antiproliferative activity against mouse L929 cells assessed as inhibition of cell growth incubated for 5 days by MTT assay; format: toxicity, cell-based
[20] = Inhibition of mitochondrial respiration in Sprague-Dawley rat liver; format: functional, tissue-based
[21] = Oral bioavailability in human; format: ADME, organism-based; details: in vivo
[22] = target: T1, Receptor tyrosine-protein kinase erbB-2 (Homo sapiens, UniProt P04626); assay: Inhibition of ERBB2 (unknown origin) in human NCI-H1975 cells assessed as increase in mitochondrial ROS level incubated for 48 hrs by Western blot analysis
[23] = target: T1, Receptor tyrosine-protein kinase erbB-2; assay: Inhibition of ERBB2 (unknown origin)
[24] = test system: L1210; assay: Antitumor activity against mouse L1210 cells xenografted in […] model assessed as prolongation of life span relative to control; format: functional
[25] = test system: HCT-116; assay: Inhibition of mitochondrial respiration in human HCT-116 cells assessed as oxygen consumption rate incubated for 1 hr by Seahorse XF24 extracellular flux analyzer; format: functional, cell-based; details: HCT-116, 1 h
[26] = test system: MDA-MB-231; assay: Inhibition of mitochondrial respiration in human MDA-MB-231 cells assessed as oxygen consumption rate incubated for 1 hr by Seahorse XF24 extracellular flux analyzer; format: functional, cell-based; details: MDA-MB-231, 1 h
[27] = test system: NSCLC; assay: Antiproliferative activity against human NSCLC cells assessed as reduction in cell viability incubated for 72 hrs by MTT assay; format: functional, cell-based
[28] = test system: NSCLC; assay: Antitumor activity against human NSCLC cells xenografted in orthotopic lung tumor mouse model assessed as reduction in tumor growth incubated for 8 weeks; format: functional; details: 1344 h
[29] = Cytotoxicity against Trichoplusia ni BTI-TN-5B1-4 cells assessed as reduction cell proliferation incubated for 24 hrs by MTT assay; format: toxicity, cell-based
[30] = test system: HT-29; assay: Inhibition of colony formation of human HT-29 cells incubated for 7 days in absence of glucose by crystal violet staining based analysis; format: functional, cell-based; details: HT-29, 168 h
[31] = test system: HT-29; assay: Inhibition of colony formation of human HT-29 cells assessed as reduction in colonies incubated for 7 days by crystal violet staining based analysis; format: functional, cell-based; details: HT-29, 168 h
[32] = test system: HepG2; assay: Cytotoxicity against human HepG2 cells assessed as reduction cell proliferation incubated for 24 hrs by MTT assay; format: functional, cell-based; details: HepG2, 24 h
[33] = test system: HEK293; assay: Cytotoxicity against human HEK293 cells assessed as reduction in cell proliferation incubated for 24 hrs by MTT assay; format: functional, cell-based; details: HEK293, 24 h
[34] = test system: HCT-116; assay: Antiproliferative activity against human HCT-116 cells assessed as reduction in cell viability; format: functional, cell-based
[35] = test system: MCF7; assay: Antiproliferative activity against human MCF7 cells assessed as reduction in cell viability incubated for 72 hrs by MTT assay; format: functional, cell-based; details: MCF7, 72 h

T1 sequence (P04626 whole entry): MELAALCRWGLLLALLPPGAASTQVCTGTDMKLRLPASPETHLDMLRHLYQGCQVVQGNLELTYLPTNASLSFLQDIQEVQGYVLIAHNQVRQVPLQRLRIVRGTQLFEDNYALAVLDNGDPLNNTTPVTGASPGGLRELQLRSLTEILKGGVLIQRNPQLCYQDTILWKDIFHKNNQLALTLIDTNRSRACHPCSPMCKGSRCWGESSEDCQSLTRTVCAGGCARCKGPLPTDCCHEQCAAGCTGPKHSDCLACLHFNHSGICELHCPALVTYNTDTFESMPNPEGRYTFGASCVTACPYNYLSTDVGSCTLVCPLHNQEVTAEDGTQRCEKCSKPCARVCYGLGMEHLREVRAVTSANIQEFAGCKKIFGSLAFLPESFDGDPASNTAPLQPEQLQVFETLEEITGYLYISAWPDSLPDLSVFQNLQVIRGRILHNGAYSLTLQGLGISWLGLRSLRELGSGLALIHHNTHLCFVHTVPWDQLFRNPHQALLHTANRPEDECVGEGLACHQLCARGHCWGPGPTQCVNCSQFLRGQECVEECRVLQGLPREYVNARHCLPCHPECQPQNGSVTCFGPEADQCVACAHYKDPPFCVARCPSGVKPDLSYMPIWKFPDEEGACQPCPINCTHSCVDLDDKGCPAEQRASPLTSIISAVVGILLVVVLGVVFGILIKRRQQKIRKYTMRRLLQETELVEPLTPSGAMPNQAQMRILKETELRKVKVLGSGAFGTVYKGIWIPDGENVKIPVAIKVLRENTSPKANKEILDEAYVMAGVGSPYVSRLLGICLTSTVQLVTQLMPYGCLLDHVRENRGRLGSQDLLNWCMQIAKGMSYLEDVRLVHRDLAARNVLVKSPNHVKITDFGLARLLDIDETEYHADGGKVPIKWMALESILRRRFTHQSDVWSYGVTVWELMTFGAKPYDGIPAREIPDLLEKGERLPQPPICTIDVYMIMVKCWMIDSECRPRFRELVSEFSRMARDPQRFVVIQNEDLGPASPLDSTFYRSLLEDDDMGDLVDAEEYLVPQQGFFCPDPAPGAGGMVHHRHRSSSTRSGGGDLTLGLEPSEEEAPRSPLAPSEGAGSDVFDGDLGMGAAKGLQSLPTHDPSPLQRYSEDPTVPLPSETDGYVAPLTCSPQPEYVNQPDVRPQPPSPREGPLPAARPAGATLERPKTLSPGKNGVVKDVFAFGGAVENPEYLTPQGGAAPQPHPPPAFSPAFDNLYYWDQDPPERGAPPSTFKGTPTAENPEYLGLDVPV

With Cc1nc(-c2nc(-c3ccc(OC(F)(F)F)cc3)no2)nn1Cc1cccc(N2CCC(S(C)(=O)=O)CC2)c1 as the compound, how does the pEC50 [1] read?
Its pEC50 is 8.52.

And the pEC50 [2]?
The pEC50 was 8.52.

And the pEC50 [3]?
Its pEC50 is 8.52.

With Cc1cc(-c2nc(-c3ccc(OC(F)(F)F)cc3)no2)nn1Cc1ccnc(N2CCN(C3CC3)CC2)c1 as the compound, how does the pIC50 [4] read?
Its pIC50 is 8.70.

What about the pEC50 [5] of the same compound?
The pEC50 was 8.52.

With CC1(C)C=CC(=O)c2c(O)c3c(c(O)c21)CC=CC3 as the compound, how does the pIC50 [6] read?
The pIC50 was 4.89.

With CCCCc1ccc(N)c(C)c1 as the compound, how does the pIC50 [7] read?
Its pIC50 is 4.00.

And the half-life [8]?
Its half-life is 1.1 h.

And the Activity [9]?
The Activity was 11 µM.

What about the Activity [10] of the same compound?
The Activity was 25 µM.

And the half-life [11]?
Its half-life is 1.2 h.

With CCCCCn1c(=O)[nH]c2cc(C(=O)N3CCN(c4ccc([N+](=O)[O-])cc4)CC3)ccc2c1=O as the compound, how does the pIC50 [12] read?
The pIC50 was 6.70.

And the pIC50 [13]?
Its pIC50 is 6.70.

What about the pIC50 [14] of the same compound?
The pIC50 was 6.70.

What about the pIC50 [15] of the same compound?
Its pIC50 is 6.70.

What does the source list for Cc1ccc(Sc2cccc3[nH]c4nc(N)nc(N)c4c23)cc1?
pIC50 [16]: 5.16; pKi [17]: 6.08; pIC50 [18]: 4.92

What does the source list for C=C(C)[C@H]1Cc2c(ccc3c2O[C@@H]2COc4cc(OC)c(OC)cc4[C@@H]2C3=O)O1 [ROTENONE]?
IC50 at 5 days [19]: 16.1 nM; pIC50 [20]: 7.71

Which bioavailability [21] does the source give for N=C(NC(=N)N1CCCC1)Nc1ccc(OC(F)(F)F)cc1 [LIXUMISTAT] here?
The bioavailability was 72.9%.

With FC(F)(F)c1ccc(/C=C/c2nc(COc3ccc(CCCCn4ccnn4)cc3)co2)cc1 [MUBRITINIB] as the compound, how does the pIC50 [22] read?
Its pIC50 is 7.10.

What about the pIC50 [23] of the same compound?
Its pIC50 is 7.29.

What does the source list for CCCCCCCCCC[C@H](O)[C@H]1CC[C@H]([C@H]2CC[C@H]([C@H](O)CCCCCCCCCC[C@@H](O)CC3=C[C@H](C)OC3=O)O2)O1 [REL-SQUAMOCIN-G]?
pIC50 [20]: 8.02; Activity [24]: 38%

What does the source list for O[C@@H](CNC[C@H](O)[C@H]1CCc2cc(F)ccc2O1)[C@@H]1CCc2cc(F)ccc2O1?
pIC50 [25]: 6.05; pIC50 [26]: 5.68

What does the source list for O=C(NCCCCCCCCCC[P+](c1ccccc1)(c1ccccc1)c1ccccc1)c1nn(Cc2ccc(Cl)cc2Cl)c2ccccc12?
pIC50 [27]: 6.13; ED50 [28]: 7.5 µmol/kg

With C/C=C(\C)[C@H](O)[C@H](C)/C=C(C)/C=C/C/C(C)=C/Cc1nc(OC)c(OC)c(O)c1C [PIERICIDIN A] as the compound, how does the IC50 at 24 h [29] read?
The IC50 at 24 h was 61 nM.

And the pIC50 [30]?
Its pIC50 is 8.11.

And the pIC50 [31]?
The pIC50 was 8.19.

And the pIC50 [32]?
Its pIC50 is 3.63.

What about the pIC50 [33] of the same compound?
Its pIC50 is 3.64.

Which results are given for Cc1cc(OCc2nnc(SC3CCCC3)n2-c2cccnc2)ccc1-c1ccc(S(C)(=O)=O)cc1?
pIC50 [34]: 6.35; IC50 at 5 days [19]: 1.3 nM

Which IC50 [35] does the source give for CCCCCC[C@H](O)CCC[C@H](O)[C@H]1CC[C@H]([C@H]2CC[C@H]([C@H](O)CCCCCCCCCCCCC3=C[C@H](C)OC3=O)O2)O1 [SQUAMOCIN] here?
Its IC50 is 0.8 ng/mL (≈ 1.28 nM).

Source: ChEMBL document CHEMBL5346908, “Recent advances of mitochondrial complex I inhibitors for cancer therapy: Current status and future perspectives” (Eur J Med Chem, 2023)
